Reference: PubChem BioAssay AID248 (DTP/NCI, 2004)
Where “and” joins values, the source holds several entries; their conditions need not be identical. Identical values can stand only once. Inconclusive results and toxic doses are left out. Rule as the data show it: active = T/C of 150% or more; inactive = T/C below 125%.

Test system: L1210 leukemia ip in BDF1 mice, survival T/C
Assay: NCI In Vivo Anticancer Drug Screen. Data for tumor model L1210 Leukemia (intraperitoneal) in B6D2F1 (BDF1) mice
Settings: endpoint: mean survival time, higher = longer survival
Procedure, shortened: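 Read-out is survival time, reported as the treated-group measurement over the vehicle-control measurement.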

[1] = dose: 100.0 mg/kg/injection, schedule: Q01DX001 (ip), vehicle: saline
[2] = dose: 100.0 mg/kg/injection, schedule: Q04DX003 (ip), vehicle: saline
[3] = dose: 200.0 mg/kg/injection, schedule: Q01DX001 (ip), vehicle: saline
[4] = dose: 200.0 mg/kg/injection, schedule: Q04DX003 (ip), vehicle: saline
[5] = dose: 400.0 mg/kg/injection, schedule: Q01DX001 (ip), vehicle: saline
[6] = dose: 100.0 mg/kg/injection, schedule: Q04DX003 (ip), vehicle: saline with Tween-80
[7] = dose: 200.0 mg/kg/injection, schedule: Q04DX003 (ip), vehicle: saline with Tween-80
[8] = dose: 400.0 mg/kg/injection, schedule: Q04DX003 (ip), vehicle: saline with Tween-80
[9] = dose: 100.0 mg/kg/injection, schedule: Q01DX009 (ip), vehicle: Klucel (hydroxypropylcellulose) (HPC)
[10] = dose: 100.0 mg/kg/injection, schedule: Q04DX003 (ip), vehicle: Klucel (hydroxypropylcellulose) (HPC)
[11] = dose: 200.0 mg/kg/injection, schedule: Q01DX009 (ip), vehicle: Klucel (hydroxypropylcellulose) (HPC)
[12] = dose: 200.0 mg/kg/injection, schedule: Q04DX003 (ip), vehicle: Klucel (hydroxypropylcellulose) (HPC)
[13] = dose: 400.0 mg/kg/injection, schedule: Q01DX009 (ip), vehicle: Klucel (hydroxypropylcellulose) (HPC)
[14] = dose: 400.0 mg/kg/injection, schedule: Q04DX003 (ip), vehicle: Klucel (hydroxypropylcellulose) (HPC)
[15] = dose: 50.0 mg/kg/injection, schedule: Q01DX001 (ip), vehicle: carboxymethylcellulose (CMC)
[16] = dose: 100.0 mg/kg/injection, schedule: Q01DX001 (ip), vehicle: carboxymethylcellulose (CMC)
[17] = dose: 200.0 mg/kg/injection, schedule: Q01DX001 (ip), vehicle: carboxymethylcellulose (CMC)
[18] = dose: 400.0 mg/kg/injection, schedule: Q01DX001 (ip), vehicle: carboxymethylcellulose (CMC)
[19] = dose: 6.25 mg/kg/injection, schedule: Q04DX003 (ip), vehicle: saline
[20] = dose: 12.5 mg/kg/injection, schedule: Q04DX003 (ip), vehicle: saline
[21] = dose: 25.0 mg/kg/injection, schedule: Q04DX003 (ip), vehicle: saline
[22] = dose: 75.0 mg/kg/injection, schedule: Q01DX001 (ip), vehicle: saline

Measured: T/C

O=C(N/N=C/C=C/c1ccccc1)[C@H](O)[C@@H](O)C(=O)N/N=C/C=C/c1ccccc1
inactive: [1] 92 % of control | dose: 100.0 mg/kg/injection, schedule: Q01DX009 (ip), vehicle: acetone 90 % of control | [2] 88 % of control | [3] 93 % of control | [4] 88 % of control | [5] 93 % of control | dose: 400.0 mg/kg/injection, schedule: Q01DX009 (ip), vehicle: acetone 92 % of control | dose: 400.0 mg/kg/injection, schedule: Q04DX003 (ip), vehicle: saline 97 % of control

N=C(N)c1ccc(OCCCCCOc2ccc(C(=N)N)cc2)cc1
inactive: dose: 12.5 mg/kg/injection, schedule: Q01DX Z (oral), vehicle: saline 95 % of control | dose: 25.0 mg/kg/injection, schedule: Q01DX Z (oral), vehicle: saline 95 % of control | dose: 50.0 mg/kg/injection, schedule: Q01DX Z (oral), vehicle: saline 100 % of control | dose: 100.0 mg/kg/injection, schedule: Q01DX Z (oral), vehicle: saline 100 % of control

O=C(Cc1ccccc1)c1ccc(OCC2CO2)cc1 (stereo unspecified)
inactive: [6] 96 % of control | [7] 94 % of control | [8] 94 % of control

CN(Nc1c([N+](=O)[O-])cc([N+](=O)[O-])cc1[N+](=O)[O-])c1ccc2ccccc2c1
inactive: dose: 50.0 mg/kg/injection, schedule: Q01DX009 (ip), vehicle: Klucel (hydroxypropylcellulose) (HPC) 103 % of control | [9] 95 % of control | [10] 95 % of control | [11] 95 % of control | [12] 92 % of control | [13] 98 % of control | [14] 95 % of control

CC(=O)c1ccc(O)c2ccccc12
inactive: dose: 100.0 mg/kg/injection, schedule: Q04DX002 (ip), vehicle: saline with Tween-80 92 % of control | dose: 200.0 mg/kg/injection, schedule: Q04DX002 (ip), vehicle: saline with Tween-80 95 % of control | dose: 400.0 mg/kg/injection, schedule: Q04DX002 (ip), vehicle: saline with Tween-80 100 % of control

O=C1N2CCOC2=NC1(c1ccccc1)c1ccccc1
inactive: dose: 50.0 mg/kg/injection, schedule: Q01DX009 (ip), vehicle: saline 111 % of control | [2] 94 % of control | [4] 103 % of control

O=C1c2ccccc2Cc2ccccc21
inactive: [1] 97 % of control | dose: 100.0 mg/kg/injection, schedule: Q04DX002 (ip), vehicle: gum acacia 103 % of control | [3] 95 % of control | dose: 200.0 mg/kg/injection, schedule: Q04DX002 (ip), vehicle: gum acacia 100 % of control | [5] 106 % of control | dose: 400.0 mg/kg/injection, schedule: Q04DX002 (ip), vehicle: gum acacia 106 % of control

COC(=O)C1=C(C(=O)OC)[C@H]2O[C@H]1[C@@H]1O[C@@H]12
inactive: dose: 6.25 mg/kg/injection, schedule: Q01DX009 (ip), vehicle: saline 104 % of control | dose: 12.5 mg/kg/injection, schedule: Q01DX001 (ip), vehicle: saline 99 % of control | dose: 12.5 mg/kg/injection, schedule: Q01DX009 (ip), vehicle: saline 100 % of control | dose: 25.0 mg/kg/injection, schedule: Q01DX001 (ip), vehicle: saline 100 % of control

CCOP(=O)(Nc1ccc2c(c1)C(O)c1ccccc1-2)OCC (stereo unspecified)
inactive: [15] 100 % of control | [16] 94 % of control | [17] 103 % of control | [18] 103 % of control

Nc1nnc(N)n1N
inactive: dose: 87.5 mg/kg/injection, schedule: Q04DX003 (ip), vehicle: Klucel (hydroxypropylcellulose) (HPC) 105 % of control | dose: 175.0 mg/kg/injection, schedule: Q04DX003 (ip), vehicle: Klucel (hydroxypropylcellulose) (HPC) 100 % of control | dose: 350.0 mg/kg/injection, schedule: Q04DX003 (ip), vehicle: Klucel (hydroxypropylcellulose) (HPC) 103 % of control

CCOC(=O)NC1=C(N2CC2C)C(=O)C(NC(=O)OCC)=C(N2CC2C)C1=O (stereo unspecified)
inactive: dose: 0.93 mg/kg/injection, schedule: Q01DX009 (ip), vehicle: Klucel (hydroxypropylcellulose) (HPC) 94 % of control and 100 % of control | dose: 1.87 mg/kg/injection, schedule: Q01DX009 (ip), vehicle: Klucel (hydroxypropylcellulose) (HPC) 97 % of control and 107 % of control | dose: 3.12 mg/kg/injection, schedule: Q04DX003 (ip), vehicle: Klucel (hydroxypropylcellulose) (HPC) 106 % of control | dose: 3.75 mg/kg/injection, schedule: Q01DX009 (ip), vehicle: Klucel (hydroxypropylcellulose) (HPC) 98 % of control and 100 % of control | dose: 6.25 mg/kg/injection, schedule: Q04DX003 (ip), vehicle: Klucel (hydroxypropylcellulose) (HPC) 95 % of control | dose: 7.5 mg/kg/injection, schedule: Q01DX009 (ip), vehicle: Klucel (hydroxypropylcellulose) (HPC) 102 % of control and 91 % of control | dose: 12.5 mg/kg/injection, schedule: Q04DX003 (ip), vehicle: Klucel (hydroxypropylcellulose) (HPC) 106 % of control | dose: 15.0 mg/kg/injection, schedule: Q01DX009 (ip), vehicle: Klucel (hydroxypropylcellulose) (HPC) 91 % of control | dose: 25.0 mg/kg/injection, schedule: Q04DX003 (ip), vehicle: Klucel (hydroxypropylcellulose) (HPC) 112 % of control | dose: 50.0 mg/kg/injection, schedule: Q04DX003 (ip), vehicle: Klucel (hydroxypropylcellulose) (HPC) 110 % of control

O=C(NC1CCCCC1)NS(=O)(=O)c1ccc2c(c1)CCC2
inactive: [1] 100 % of control | [3] 102 % of control | [5] 96 % of control

COC(=O)CCNc1ccccc1-c1ccccc1
inactive: dose: 100.0 mg/kg/injection, schedule: Q04DX002 (ip), vehicle: saline 95 % of control | dose: 200.0 mg/kg/injection, schedule: Q04DX002 (ip), vehicle: saline 114 % of control | dose: 400.0 mg/kg/injection, schedule: Q04DX002 (ip), vehicle: saline 103 % of control

CC(C(=O)c1ccccc1)C(N[N+](C)(C)C)c1ccccc1 (stereo unspecified)
inactive: [19] 91 % of control | [20] 97 % of control | [21] 97 % of control

CC(=O)OC1CC2C(=O)CC1(C)C2(C)C (stereo unspecified)
inactive: [22] 102 % of control

CCCC(CCC)NC(CC)COC(=O)c1ccc(N)cc1 (stereo unspecified)
inactive: dose: 75.0 mg/kg/injection, schedule: Q01DX001 (ip), vehicle: other 97 % of control

C1=CC2(CCCC1)OCCO2
inactive: [6] 100 % of control | [7] 97 % of control | [8] 108 % of control

COc1ccc(C(=O)CCC(=O)O)cc1OC
inactive: [15] 97 % of control | [16] 100 % of control | [17] 92 % of control | [18] 92 % of control

CNc1nc(N(C)C)nc(N(C)C)n1
inactive: [22] 92 % of control | dose: 150.0 mg/kg/injection, schedule: Q01DX001 (ip), vehicle: saline 94 % of control

CCCCCCCCCCCCC(C)(OO)C(=O)OC (stereo unspecified)
inactive: dose: 15.0 mg/kg/injection, schedule: Q04DX002 (ip), vehicle: saline with Tween-80 100 % of control | dose: 30.0 mg/kg/injection, schedule: Q04DX002 (ip), vehicle: saline with Tween-80 91 % of control | dose: 160.0 mg/kg/injection, schedule: Q04DX002 (ip), vehicle: saline with Tween-80 95 % of control

O=C(O)/C=C/C(=O)Nc1ccc([N+](=O)[O-])c(C(F)(F)F)c1
inactive: [9] 107 % of control | [11] 112 % of control

C[n+]1ccccc1C(=O)O (tested in a mixture with another compound)
inactive: [2] 101 % of control | [4] 98 % of control

CCCCOc1cc(C(=O)NCCN(CC)CC)c2ccccc2n1
inactive: [19] 98 % of control | [20] 98 % of control | [21] 107 % of control

C=CCn1c(/N=C\N(C)C)cc(=O)[nH]c1=O
inactive: [9] 103 % of control | [10] 97 % of control | [11] 107 % of control | [12] 97 % of control | [13] 100 % of control | [14] 89 % of control
